Measured values taken from patent US6949381B2, “Immortalized human skin cell lines and novel serum-free medium useful for the production thereof” (Nestec S.A., priority 1995, dated 2005).

Assays:
Assay type in all cases: cell-based, Human
[1] = tested on: melanocytes (DM2-NR, normal); assay: Induction/inhibition of melanin synthesis in melanocytes; settings: T-Ag expressing melanocyte lines (especially DM2-NR), comparable to normal cells
Protocol: The melanocytes were treated with the melanogensis inducers tyrosin and theophylline and the melanogenesis inhibitor kojic acid.

normal keratinocytes = assay: Keratinocyte growth in serum-free media (cell count, FIG. 1); settings: serum free medium
Excerpt: FIG. 1 compares the growth (in terms of cell number) of non-immortalized DKO-NR keratinocytes in three different media, i.e., NR-3, epinephrine-supplemented modified MCDB 153 and MCDB 153 after 6 days.
• 1) Characterization of Keratinocytes Growth in Serum-free Media: primary cell cultures were cultivated in modified MCDB 153 [Boyce et al., J. Tissue Cult. Meth., 9:83-93 (1985); and Pittlekow et al., J. Invest. Dermatol., 86:410-417, 1986] and NR-3 media.
FIG. 1 comprises cell growth in NR-3 and epinephrine-supplemented modified MCDB 153 (keratinocyte growth medium) after 6 days. The modified MCDB 153 medium refers to modified MCDB 153. Keratinocytes were harvested in trypsin/EDTA (0.05%/0.01%) and counted by using a hemocytometer. […] In particular, the results shown in Table 2 compare the growth of keratinocytes in coated and uncoated culture plates. 100,000 keratinocytes were seeded on 3.5 cm plates containing NR-3 medium.

collagenase (type I) = assay: Collagenase (type I) expression after phorbol ester treatment; settings: immortalized keratinocytes treated with phorbol esters

Row | SMILES | induction/inhibition of melanogenesis [1] | other results
1 | Cn1c(=O)c2[nH]cnc2n(C)c1=O [theophylline] | dose dependent | –
2 | CNC[C@H](O)c1ccc(O)c(O)c1 [epinephrine] | – | growth of normal keratinocytes (normal keratinocytes): strong growth factor of normal keratinocytes
3 | O=c1cc(CO)occ1O [kojic acid] | dose dependent | –
4 | N[C@@H](Cc1ccc(O)cc1)C(=O)O [tyrosin] | dose dependent | –
5 | CCCCCCCCCCCCCC(=O)O[C@@H]1[C@@H](C)[C@@]2(O)[C@@H](C=C(CO)C[C@]3(O)C(=O)C(C)=C[C@@H]23)[C@@H]2C(C)(C)[C@]12OC(C)=O [PMA, phorbol-12-myristate-13-acetate] | – | collagenase (type I) expression (collagenase (type I)): increase of collagenase (type I) expression
